Assay results from article PMC7663616, “(5-Hydroxy-4-oxo-2-styryl-4H-pyridin-1-yl)-acetic Acid Derivatives as Multifunctional Aldose Reductase Inhibitors” (Molecules, 2020).
Where “and” joins values, the source holds several entries; their conditions need not be identical. Equal entries are not always repeated. Where two headings read alike, the source gives them in different places.

Assays:
human recombinant ALR2 = human recombinant ALR2 (Homo sapiens, UniProt P15121); assay: ALR2 enzyme inhibition assay (NADPH oxidation, D,L-glyceraldehyde substrate); assay type: biochemical
Experimental: (§1) All the title compounds were tested for their inhibitory activity against human recombinant ALR2.
(§2) The ALR2 inhibition activity was evaluated in a mixture of reaction with 50 μL NADPH (0.1 mM), 50 μL sodium phosphate buffer (pH = 6.2, 100 mM), 50 μL human recombinant ALR2, 1 μL dimethyl sulfoxide (DMSO) as solvent, and 50 μL D,L-glyceraldehyde (10 mM) which served as a substrate. […] Before the substrate was added, the mixture was incubated at 30 °C for 3 min, then the reaction was started when the substrate was added, and was monitored for 4 min.
(§3) The inhibitory activities of the title synthetic compounds against ALR2 and ALR1 were examined by adding 1 μL of the inhibitor solution to the ALR2 or ALR1 mixtures. All compounds were dissolved in DMSO, and the solutions were diluted with DMSO to desirable concentrations. To correct for the nonenzymatic oxidation of NADPH, the rate of NADPH oxidation in the presence of all of the reaction mixture components except the substrate was subtracted from each experimental rate. […] The inhibitory rates of tested compounds were calculated by equation as follows:Inhibitory rate (%) = (1 − ∆Asample/∆AE+DMSO) × 100%(1) sample = enzyme + compound + DMSO(2) E + DMSO = enzyme + DMSO(3)
(§4) The experiments were performed in triplicate.

human recombinant ALR1 = target: T1, human recombinant ALR1 (Homo sapiens, UniProt P14550); assay: ALR1 enzyme inhibition assay (NADPH oxidation, sodium D-gluconate substrate); assay type: biochemical; conditions: for inhibition at 100 µM: read-out: ALR1 Inh. %; for SI: selectivity index, defined as IC50[ALR1]: IC50[ALR2]
T1 sequence (P14550 1-325): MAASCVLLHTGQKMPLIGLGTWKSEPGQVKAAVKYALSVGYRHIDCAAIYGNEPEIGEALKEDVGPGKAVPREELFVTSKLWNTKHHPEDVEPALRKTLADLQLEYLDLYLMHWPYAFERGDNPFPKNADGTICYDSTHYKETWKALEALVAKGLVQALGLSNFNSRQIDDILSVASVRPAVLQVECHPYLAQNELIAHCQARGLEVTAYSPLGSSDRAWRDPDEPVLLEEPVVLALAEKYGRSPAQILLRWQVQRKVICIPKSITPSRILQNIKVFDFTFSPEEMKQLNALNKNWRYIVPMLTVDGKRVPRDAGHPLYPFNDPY
Experimental: as §1
as §2, with “min. The ALR1 inhibition activity experiment was conducted at 37 °C in the mixture containing 50 μL NADPH (0.12 mM), 50 μL human recombinant ALR1, 50 μL sodium phosphate buffer (pH = 7.2, 100 mM), 50 μL sodium […] (20 mM) as a substrate, and 1 μL DMSO as solvent. Before the substrate sodium […] was added, the mixture was incubated at 37 °C for 3 min, then the substrate was added to start the reaction, which was monitored for 4 min.” for “min.”
as §3, with “rate. The title compounds were tested at concentrations ranging from 100 μM to 1 μM, except compound 7l which were tested 10 μM to 0.1 μM.” for “rate.”
as §4

[1] = tested on: lipid peroxidation in rat brain homogenate; assay: Lipid peroxidation suppression (TBARS/MDA) in rat brain homogenate induced by Fe(III)/ascorbic acid; assay type: biochemical; conditions: tested in concentration of 100 μM, n = 3
Text: Lipid peroxidation reactions involve free radical attacks on unsaturated fatty acid, producing free radicals and lipid peroxides which eventually harm the organism and usually decompose to form poisonous malonaldehyde (MDA). Thiobarbituric acid reactive substances (TBARS), which generated from the condensation of thiobarbituric acid and malondialdehyde, are considered as key biomarkers to determine the level of lipid peroxidation. For further identification that the derivatives tested in DPPH scavenging assay can be effective in heterogeneous oxidative pathway, the suppression effect of compounds on the hydroxyl radical-dependent lipoperoxidation in rat brain homogenate oxidant system which induced by Fe(III)/ascorbic acid was also evaluated.
Compounds 7a, 7c, 7g and 7k–l that were already described in the DPPH radical scavenging activity were investigated in the suppression of lipid peroxidation (Table 3).
(§5) Antioxidant assays were performed with the similar protocol as described previously.

[2] = DPPH radical scavenging assay; conditions: n = 3
Experimental: In this part, the antioxidant activity was measured by an intrinsic chemical reactivity toward radicals, in a homogeneous reaction system of the methanol solution of 1,1-diphenyl-2-trinitrophenylhydrazine (DPPH) (0.2 mM), and 6-hydroxy-2,5,7,8-tetramethyl- chroman-2-carboxylic acid (Trolox) served as a reference compound.
as §5

[3] = design: method as in Lewis F. W. et al [36]; conditions: 100 μM column; ref Lewis F. W. et al [36]; cited from earlier work
[4] = tested on: lipid peroxidation in rat brain homogenate; design: method as in Chaves S. et al. [37]; conditions: ref Chaves S. et al. [37]; cited from earlier work
[5] = n = 3, mean ± SD, read-out: IC50 for ALR2
[6] = raw data, average of three replicates, unit not given (molar scale), read-out: IC50 average (ALR2)
[7] = raw data, single replicate, unit not given (molar scale by log(dose)), read-out: IC50 (ALR2)
[8] = tested in concentration of 100 μM, n = 3

| SMILES | IC50 (human recombinant ALR2; [5]) [µM] | IC50 (human recombinant ALR2; [6]) [µM] | IC50 (human recombinant ALR2; [7]) | IC50 (human recombinant ALR1; n = 3) [µM] | inhibition at 100 µM (human recombinant ALR1; [8]) [%] | MDA inh. % [1] [%] | % of Inhibition of Control Value (DPPH) ([2]; 100 μM) [%] | further results |
| --- | --- | --- | --- | --- | --- | --- | --- | --- |
| CC(C)(C)c1ccc(C=Cc2cc(=O)c(O)cn2CC(=O)O)cc1 [7c, {2-[2-(4-tert-Butyl-phenyl)-vinyl]-5-hydroxy-4-oxo-4H-pyridin-1-yl}-acetic acid] | 2.98 ± 0.73 | 2.98 | 2.06 µM and 3.03 µM and 3.84 µM | > 100 | 49.41 ± 0.45 | 26.10 ± 1.06 | 25.44 ± 2.36 | – |
| COc1ccc(C=Cc2cc(=O)c(O)cn2CC(=O)O)cc1 [7d, {5-Hydroxy-2-[2-(4-methoxy-phenyl)-vinyl]-4-oxo-4H-pyridin-1-yl}-acetic acid] | 6.78 ± 0.91 | 6.78 | 5.7 µM and 7.92 µM and 6.7 µM | – | – | – | – | I% (ALR2 inhibitory rate) (human recombinant ALR2; raw data, single replicate, log(dose) -5): 54.7% |
| O=C(O)Cn1cc(O)c(=O)cc1C=Cc1ccc(C(F)(F)F)cc1 [7h, {5-Hydroxy-4-oxo-2-[2-(4-trifluoromethyl-phenyl)-vinyl]-4H-pyridin-1-yl}-acetic acid] | 10.7 ± 1.47 | 10.7 | 8.88 µM and 10.8 µM and 12.5 µM | – | – | – | – | – |
| CS(=O)(=O)c1ccc(C=Cc2cc(=O)c(O)cn2CC(=O)O)cc1 [7i, {5-Hydroxy-2-[2-(4-methanesulfonyl-phenyl)-vinyl]-4-oxo-4H-pyridin-1-yl}-acetic acid] | 17.1 ± 2.3 | 17.1 | 16.1 µM and 20.3 µM and 15 µM | – | – | – | – | – |
| O=C(O)Cn1cc(O)c(=O)cc1C=Cc1ccc(O)cc1 [7k, {5-Hydroxy-2-[2-(4-hydroxy-phenyl)-vinyl]-4-oxo-4H-pyridin-1-yl}-acetic acid] | 2.36 ± 0.42 | – | 2.63 µM and 1.86 µM and 2.86 µM | 15 ± 0.54 | 75.8 ± 2.34 | 90.73 ± 3.97 | 96.69 ± 0.72 | SI (human recombinant ALR1): 6.36; % of Inhibition of Control Value (DPPH) ([2]; 1 μM): 33.08 ± 0.72%; % of Inhibition of Control Value (DPPH) ([2]; 5 μM): 72.01 ± 1.80%; % of Inhibition of Control Value (DPPH) ([2]; 10 μM): 89.31 ± 0.62% |
| Cc1c(O)c(=O)ccn1C [Deferiprone, 3-hydroxy-1,2-dimethyl-1H-pyridin-4-one] | – | – | – | – | – | – | – | % of Inhibition of Control Value (DPPH) [3]: 63%; MDA inh. % [4]: 25% |
| Cc1c(C)c2c(c(C)c1O)CCC(C)(C(=O)O)O2 (stereo not drawn) [Trolox, 6-hydroxy-2,5,7,8-tetramethyl-chroman-2-carboxylic acid, reference compound] | – | – | – | – | – | 74.82 ± 1.82 | 92.32 ± 0.19 | % of Inhibition of Control Value (DPPH) ([2]; 1 μM): 11.89 ± 1.39%; % of Inhibition of Control Value (DPPH) ([2]; 5 μM): 45.53 ± 1.12%; % of Inhibition of Control Value (DPPH) ([2]; 10 μM): 80.33 ± 1.22% |
| CC(/C=C1\SC(=S)N(CC(=O)O)C1=O)=C\c1ccccc1 [epalrestat, reference compound] | – | – | – | 3.56 ± 0.18 | – | – | – | inhibition at 100 µM (human recombinant ALR1): 80.8 ± 3.74% |

Second part, led by results:

| IC50 (human recombinant ALR2; [5]) [µM] | IC50 (human recombinant ALR2; [6]) [µM] | IC50 (human recombinant ALR2; [7]) | IC50 (human recombinant ALR1; n = 3) [µM] | inhibition at 100 µM (human recombinant ALR1; [8]) [%] | SMILES | MDA inh. % [1] [%] | % of Inhibition of Control Value (DPPH) ([2]; 100 μM) [%] | further results |
| --- | --- | --- | --- | --- | --- | --- | --- | --- |
| 8.41 ± 0.63 | 8.41 | 7.85 µM and 8.09 µM and 9.28 µM | > 100 | 38.8 ± 1.75 | O=C(O)Cn1cc(O)c(=O)cc1C=Cc1ccccc1 [7a, (5-Hydroxy-4-oxo-2-styryl-4H-pyridin-1-yl)-acetic acid] | 19.28 ± 0.98 | 22.90 ± 3.30 | melting point: 254 to 255 °C |
| 5.3 ± 0.6 | 5.3 | 4.48 µM and 5.49 µM and 5.91 µM | – | – | Cc1ccc(C=Cc2cc(=O)c(O)cn2CC(=O)O)cc1 [7b, [5-Hydroxy-4-oxo-2-(2-p-tolyl-vinyl)-4H-pyridin-1-yl]-acetic acid] | – | – | melting point: 256 to 257 °C |
| 9.56 ± 0.98 | 9.56 | 9.61 µM and 8.33 µM and 10.7 µM | – | – | COc1ccc(C=Cc2cc(=O)c(O)cn2CC(=O)O)cc1OC [7e, {2-[2-(3,4-Dimethoxy-phenyl)-vinyl]-5-hydroxy-4-oxo-4H-pyridin-1-yl}-acetic acid] | – | – | – |
| 6.64 ± 2.39 | 6.64 | 4.52 µM and 9.99 µM and 5.42 µM | – | – | O=C(O)Cn1cc(O)c(=O)cc1C=Cc1ccc(F)cc1 [7f, {2-[2-(4-Fluoro-phenyl)-vinyl]-5-hydroxy-4-oxo-4H-pyridin-1-yl}-acetic acid] | – | – | – |
| 2.11 ± 0.34 | 2.11 | 2.52 µM and 2.11 µM and 1.7 µM | > 100 | 35.8 ± 3.23 | O=C(O)Cn1cc(O)c(=O)cc1C=Cc1ccc(F)c(F)c1 [7g, {2-[2-(3,4-Difluoro-phenyl)-vinyl]-5-hydroxy-4-oxo-4H-pyridin-1-yl}-acetic acid] | 55.02 ± 3.00 | 28.50 ± 0.95 | – |
| 8.19 ± 0.43 | 8.19 | 8.07 µM and 7.74 µM and 8.76 µM | – | – | Nc1ccc(C=Cc2cc(=O)c(O)cn2CC(=O)O)cc1 [7j, {2-[2-(4-Amino-phenyl)-vinyl]-5-hydroxy-4-oxo-4H-pyridin-1-yl}-acetic acid] | – | – | – |
| 0.789 ± 0.183 | 0.789 | 0.916 µM and 0.921 µM and 0.53 µM | 19.9 ± 1.72 | 80 ± 3.59 | O=C(O)Cn1cc(O)c(=O)cc1C=Cc1ccc(O)c(O)c1 [7l, {2-[2-(3,4-Dihydroxy-phenyl)-vinyl]-5-hydroxy-4-oxo-4H-pyridin-1-yl}-acetic acid] | 88.76 ± 2.04 | 97.96 ± 0.36 | SI (human recombinant ALR1): 25.23; % of Inhibition of Control Value (DPPH) ([2]; 1 μM): 41.48 ± 0.95%; % of Inhibition of Control Value (DPPH) ([2]; 5 μM): 67.18 ± 0.62%; % of Inhibition of Control Value (DPPH) ([2]; 10 μM): 82.44 ± 1.65% |
